Reference: patent publication US11414395B2, “Heterocyclic compounds as modulators of mGluR7” (PRAGMA Therapeutics, priority 2017, dated 2022)

target: human mGluR7 (Homo sapiens (Human), UniProt Q14831); test: Inositol monophosphate production assay (IP1 assay), inhibition of L-AP4 response; type: cell-based; conditions: mean IC50 from at least two independent experiments; HEK293 cells transiently transfected with mGluR7, Gqtop and EAAC1; IP1 production vs EC80 L-AP4
Description: Inositol Monophosphate Production Assay (IP1 Assay):
HEK293 cells were transiently transfected with mGluR7 by electroporation and seeded in a poly-ornithine coated 96-well plate at the density of 150 000 cells/well. To allow the monitoring of receptor activity through measurements of inositol monophosphate (IP1) production, mGluR7 was transfected with a chimeric Gq/Gi protein (Gqtop). and was also co-transfected with EAAC1, a glutamate transporter, to avoid influence of extracellular glutamate. Cells were cultured in Dulbecco's Modified Eagle Medium (DMEM, Invitrogen, Cergy Pontoise, France), supplemented with 10% of Fetal Bovine Serum (FBS). Medium was changed by Glutamax™ (Invitrogen, Cergy Pontoise, France) to reduce extracellular glutamate concentration 3 hours before stimulation
IP1 production was determined using the IP-One HTRF kit (CisBio Bioassays), a competitive immunoassay using cryptate-labeled anti-IP1 antibody and d2-labeled IP, according to the manufacturer's recommendations. All points were realized in triplicate.
Data were analyzed with Prism 6 software (GraphPadSoftware, San Diego, Calif.). Typically, in each experiment, a four-parameter concentration-response curve equation was used to fit data and potency (IC50) is estimated as logarithms (log IC50). Data were calculated as % of the control mGluR7 agonist L-AP4 response, defined as the response that is generated upon addition of an EC80-equivalent concentration of L-AP4.
The Table 2 below represents the mean IC50 obtained from at least two independent experiments.

human mGluR7, sequence (Q14831 35-915): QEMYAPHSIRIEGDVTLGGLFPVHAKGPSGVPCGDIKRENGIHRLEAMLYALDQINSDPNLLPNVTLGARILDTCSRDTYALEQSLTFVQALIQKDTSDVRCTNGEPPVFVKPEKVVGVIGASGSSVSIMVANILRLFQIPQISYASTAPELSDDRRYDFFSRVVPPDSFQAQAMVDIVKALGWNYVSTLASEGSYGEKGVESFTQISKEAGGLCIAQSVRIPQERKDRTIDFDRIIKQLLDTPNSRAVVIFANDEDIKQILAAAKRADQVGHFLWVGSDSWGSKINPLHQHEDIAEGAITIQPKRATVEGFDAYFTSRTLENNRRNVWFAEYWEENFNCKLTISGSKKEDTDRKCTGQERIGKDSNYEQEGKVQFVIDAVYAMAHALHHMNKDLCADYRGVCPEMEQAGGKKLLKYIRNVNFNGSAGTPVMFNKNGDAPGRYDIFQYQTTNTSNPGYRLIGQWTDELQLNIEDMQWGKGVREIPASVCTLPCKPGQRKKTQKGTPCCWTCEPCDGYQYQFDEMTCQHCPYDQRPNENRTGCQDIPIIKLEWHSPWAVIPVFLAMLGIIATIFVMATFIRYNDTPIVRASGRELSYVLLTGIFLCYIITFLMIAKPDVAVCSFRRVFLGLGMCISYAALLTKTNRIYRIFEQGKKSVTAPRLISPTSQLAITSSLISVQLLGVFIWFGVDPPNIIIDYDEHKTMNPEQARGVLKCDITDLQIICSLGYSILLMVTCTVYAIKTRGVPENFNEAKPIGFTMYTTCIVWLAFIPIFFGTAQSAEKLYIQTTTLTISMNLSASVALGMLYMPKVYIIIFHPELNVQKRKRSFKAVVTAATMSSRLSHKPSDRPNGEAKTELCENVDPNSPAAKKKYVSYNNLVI

Row | IC50 [nM] | SMILES
1 | < 500 | CN1CCc2c(C3CCc4c(cnn(-c5ncccn5)c4=O)C3)cccc21 (stereo not drawn) [Example 78, 6-(1-methylindolin-4-yl)-2-(pyrimidin-2-yl)-5,6,7,8-tetrahydrophthalazin-1(2H)-one]
2 | < 500 | Cc1ccc(C2CCc3c(cnn(-c4ncccn4)c3=O)C2)c(Cl)c1 (stereo not drawn) [Example 95, 6-(2-chloro-4-methylphenyl)-2-(pyrimidin-2-yl)-5,6,7,8-tetrahydrophthalazin-1(2H)-one]
3 | < 500 | COc1cccc(C2CCc3c(cnn(-c4ncc(C)cn4)c3=O)C2)c1Cl (stereo not drawn) [Example 94, 6-(2-chloro-3-methoxyphenyl)-2-(5-methylpyrimidin-2-yl)-5,6,7,8-tetrahydrophthalazin-1(2H)-one]
4 | < 500 | Cc1ccc(C2CCc3c(cnn(-c4ccc(C5CC5)cn4)c3=O)C2)c(C)c1 (stereo not drawn) [Example 108, 2-(5-cyclopropylpyridin-2-yl)-6-(2,4-dimethylphenyl)-5,6,7,8-tetrahydrophthalazin-1(2H)-one]
5 | 1000 to 30000 | CC(=O)c1ccc(C2CCc3c(cnn(-c4ncccn4)c3=O)C2)c(C)c1 (stereo not drawn) [Example 99, 6-(4-acetyl-2-methylphenyl)-2-(pyrimidin-2-yl)-5,6,7,8-tetrahydrophthalazin-1(2H)-one]
6 | < 500 | COc1cccc(C2CCc3c(cnn(-c4ccccn4)c3=O)C2)c1C (stereo not drawn) [Example 60, 6-(3-methoxy-2-methylphenyl)-2-(pyridin-2-yl)-5,6,7,8-tetrahydrophthalazin-1(2H)-one]
7 | 500 to 1000 | COc1cc(C)ccc1C1CCc2c(cnn(-c3ncccn3)c2=O)C1 (stereo not drawn) [Example 70, 6-(2-methoxy-4-methylphenyl)-2-(pyrimidin-2-yl)-5,6,7,8-tetrahydrophthalazin-1(2H)-one]
8 | < 500 | COc1cnc(-n2ncc3c(c2=O)CCC(c2cccc(OC)c2C)C3)cn1 (stereo not drawn) [Example 44, 6-(3-methoxy-2-methylphenyl)-2-(5-methoxypyrazin-2-yl)-5,6,7,8-tetrahydrophthalazin-1(2H)-one]
9 | 500 to 1000 | O=c1c2c(cnn1-c1ncccn1)CC(c1cccc(OC3CCCC3)c1)CC2 (stereo not drawn) [Example 86, 6-(3-(cyclopentyloxy)phenyl)-2-(pyrimidin-2-yl)-5,6,7,8-tetrahydrophthalazin-1(2H)-one]
10 | < 500 | Cc1ccc(C2CCc3c(cnn(-c4ccccn4)c3=O)C2)c(C)c1 (single isomer, unassigned; (+)) [Example 5, (+)-6-(2,4-dimethyl-phenyl)-2-pyridin-2-yl-5,6,7,8-tetrahydro-2H-phthalazin-1-one]
11 | < 500 | Cc1ccc(N2CCCC2)cc1C1CCc2c(cnn(-c3ncccn3)c2=O)C1 (stereo not drawn) [Example 77, 6-(2-methyl-5-(pyrrolidin-1-yl)phenyl)-2-(pyrimidin-2-yl)-5,6,7,8-tetrahydrophthalazin-1(2H)-one]
12 | < 500 | Cc1ccc(C2CCc3c(ncn(-c4ccccn4)c3=O)C2)c(C)c1 (stereo not drawn) [Example 122, 7-(2,4-dimethylphenyl)-3-(pyridin-2-yl)-5,6,7,8-tetrahydroquinazolin-4(3H)-one]
13 | 1000 to 30000 | COCCOc1cccc(C2CCc3c(cnn(-c4ncccn4)c3=O)C2)c1C (stereo not drawn) [Example 105, 6-(3-(2-methoxyethoxy)-2-methylphenyl)-2-(pyrimidin-2-yl)-5,6,7,8-tetrahydrophthalazin-1(2H)-one]
14 | < 500 | COc1cccnc1-n1ncc2c(c1=O)CCC(c1ccc(C)cc1C)C2 (stereo not drawn) [Example 16, 6-(2,4-dimethylphenyl)-2-(3-methoxypyridin-2-yl)-5,6,7,8-tetrahydrophthalazin-1(2H)-one]
15 | < 500 | COc1ccc(C)c(C2CCc3c(cnn(-c4ccccn4)c3=O)C2)c1 (stereo not drawn) [Example 61, 6-(5-methoxy-2-methylphenyl)-2-(pyridin-2-yl)-5,6,7,8-tetrahydrophthalazin-1(2H)-one]
16 | 1000 to 30000 | COc1cc(C2CCc3c(cnn(-c4ccccn4)c3=O)C2)ccc1C (stereo not drawn) [Example 64, 6-(3-methoxy-4-methylphenyl)-2-(pyridin-2-yl)-5,6,7,8-tetrahydrophthalazin-1(2H)-one]
17 | < 500 | Cc1ccc(C2CCc3c(cnn(-c4ncc(N5CCOCC5)cn4)c3=O)C2)c(C)c1 (stereo not drawn) [Example 115, 6-(2,4-dimethylphenyl)-2-(5-morpholinopyrimidin-2-yl)-5,6,7,8-tetrahydrophthalazin-1(2H)-one]
18 | < 500 | CCOc1cccc(C2CCc3c(cnn(-c4ncccn4)c3=O)C2)c1C (stereo not drawn) [Example 101, 6-(3-ethoxy-2-methylphenyl)-2-(pyrimidin-2-yl)-5,6,7,8-tetrahydrophthalazin-1(2H)-one]

Row | IC50 [nM] | SMILES
19 | 500 to 1000 | COc1cnc(-n2ncc3c(c2=O)CCC(c2cc(OC)ccc2C)C3)nc1 (stereo not drawn) [Example 48, 6-(5-methoxy-2-methylphenyl)-2-(5-methoxypyrimidin-2-yl)-5,6,7,8-tetrahydrophthalazin-1(2H)-one]
20 | < 500 | O=c1c2c(cnn1-c1ncccn1)CC(c1cccc(OC3CC3)c1Cl)CC2 (single isomer, unassigned; (+)) [Example 131, (+)-6-(2-chloro-3-cyclopropoxyphenyl)-2-(pyrimidin-2-yl)-5,6,7,8-tetrahydrophthalazin-1(2H)-one]
21 | < 500 | O=c1c2c(cnn1-c1ncccn1)CC(c1cccc3c1ccn3C1CC1)CC2 (stereo not drawn) [Example 124, 6-(1-cyclopropyl-1H-indol-4-yl)-2-(pyrimidin-2-yl)-5,6,7,8-tetrahydrophthalazin-1(2H)-one]
22 | < 500 | Cc1cnc(-n2ncc3c(c2=O)CCC(c2cccc(OC4CC4)c2C)C3)nc1 (stereo not drawn) [Example 93, 6-(3-cyclopropoxy-2-methylphenyl)-2-(5-methylpyrimidin-2-yl)-5,6,7,8-tetrahydrophthalazin-1(2H)-one]
23 | < 500 | COCCOc1cnc(-n2ncc3c(c2=O)CCC(c2cccc(OC)c2C)C3)nc1 (stereo not drawn) [Example 118, 6-(3-methoxy-2-methylphenyl)-2-(5-(2-methoxyethoxy)pyrimidin-2-yl)-5,6,7,8-tetrahydrophthalazin-1(2H)-one]
24 | < 500 | CN(C)c1cccc(C2CCc3c(cnn(-c4ccccn4)c3=O)C2)c1 (stereo not drawn) [Example 59, 6-(3-(dimethylamino)phenyl)-2-(pyridin-2-yl)-5,6,7,8-tetrahydrophthalazin-1(2H)-one]
25 | < 500 | Cc1ccnc(-n2ncc3c(c2=O)CCC(c2ccc(C)cc2C)C3)c1 (stereo not drawn) [Example 19, 6-(2,4-dimethylphenyl)-2-(4-methylpyridin-2-yl)-5,6,7,8-tetrahydrophthalazin-1(2H)-one]
26 | 1000 to 30000 | COc1cccc(C2CCc3c(cnn(-c4ncc(N5CCCC5)cn4)c3=O)C2)c1C (stereo not drawn) [Example 111, 6-(3-methoxy-2-methylphenyl)-2-(5-(pyrrolidin-1-yl)pyrimidin-2-yl)-5,6,7,8-tetrahydrophthalazin-1(2H)-one]
27 | < 500 | COc1ccc(C2CCc3c(cnn(-c4ncccn4)c3=O)C2)c(C)c1 (stereo not drawn) [Example 87, 6-(4-methoxy-2-methylphenyl)-2-(pyrimidin-2-yl)-5,6,7,8-tetrahydrophthalazin-1(2H)-one]
28 | < 500 | COc1cccc(C2CCc3c(cnn(-c4ncc(N5CCOCC5)cn4)c3=O)C2)c1C (stereo not drawn) [Example 112, 6-(3-methoxy-2-methylphenyl)-2-(5-morpholinopyrimidin-2-yl)-5,6,7,8-tetrahydrophthalazin-1(2H)-one]
29 | < 500 | Cc1ccc(C2CCc3c(cnn(-c4cccnc4)c3=O)C2)c(C)c1 (stereo not drawn) [Example 28, 6-(2,4-dimethylphenyl)-2-(pyridin-3-yl)-5,6,7,8-tetrahydrophthalazin-1(2H)-one]
30 | < 500 | O=c1c2c(cnn1-c1ncccn1)CC(c1cccc3c1ccn3C1CC1)CC2 (single isomer, unassigned; (-)) [Example 139, (−)-6-(1-cyclopropyl-1H-indol-4-yl)-2-(pyrimidin-2-yl)-5,6,7,8-tetrahydrophthalazin-1(2H)-one]
31 | 1000 to 30000 | COc1ccc(C2CCc3c(cnn(-c4ccccn4)c3=O)C2)cc1 (stereo not drawn) [Example 3, 6-(4-methoxyphenyl)-2-(pyridin-2-yl)-5,6,7,8-tetrahydrophthalazin-1(2H)-one]
32 | 1000 to 30000 | Cc1ccc(C2CCc3c(cnn(-c4nc(C)cc(C)n4)c3=O)C2)c(C)c1 (stereo not drawn) [Example 36, 6-(2,4-dimethylphenyl)-2-(4,6-dimethylpyrimidin-2-yl)-5,6,7,8-tetrahydrophthalazin-1(2H)-one]
33 | 1000 to 30000 | CC(=O)Nc1cnc(-n2ncc3c(c2=O)CCC(c2ccc(C)cc2C)C3)nc1 (single isomer, unassigned; (-)) [Example 136, (−)-N-(2-(6-(2,4-dimethylphenyl)-1-oxo-5,6,7,8-tetrahydrophthalazin-2(1H)-yl)pyrimidin-5-yl)acetamide]
34 | < 500 | COc1cccc(-n2ncc3c(c2=O)CCC(c2ccc(C)cc2C)C3)n1 (stereo not drawn) [Example 13, 6-(2,4-dimethylphenyl)-2-(6-methoxypyridin-2-yl)-5,6,7,8-tetrahydrophthalazin-1(2H)-one]
35 | < 500 | Cc1ccc(C2CCc3c(cnn(-c4cc(Cl)ccn4)c3=O)C2)c(C)c1 (stereo not drawn) [Example 7, 2-(4-chloropyridin-2-yl)-6-(2,4-dimethylphenyl)-5,6,7,8-tetrahydrophthalazin-1(2H)-one]
36 | < 500 | Cc1ccc(-n2ncc3c(c2=O)CCC(c2ccc(C)cc2C)C3)nc1 (stereo not drawn) [Example 18, 6-(2,4-dimethylphenyl)-2-(5-methylpyridin-2-yl)-5,6,7,8-tetrahydrophthalazin-1(2H)-one]
